Values quoted from earlier work as cited in patent US20130289102A1, “AMYRIS ALCOHOL AND ITS ESTER FOR TREATING ACNE” (Trinity Laboratories, Inc., priority 2010, published 2013).

What was measured:
[1] = mouse, in vivo, po
estrogenic activity = details: among the known phytoestrogens
[2] = up to 292 mg/kg over 1 to 3 months
[3] = test system: UVB-induced pigmented skins
[4] = test system: superoxide anion production; details: 0.33 μg/ml to 33.3 μg/ml
cyclooxygenase = details: 6.25 μg/ml, with respect to the control
human estrogen receptor = target: T1, human estrogen receptor (Homo sapiens, UniProt P03372)
T1 sequence (P03372 1-595): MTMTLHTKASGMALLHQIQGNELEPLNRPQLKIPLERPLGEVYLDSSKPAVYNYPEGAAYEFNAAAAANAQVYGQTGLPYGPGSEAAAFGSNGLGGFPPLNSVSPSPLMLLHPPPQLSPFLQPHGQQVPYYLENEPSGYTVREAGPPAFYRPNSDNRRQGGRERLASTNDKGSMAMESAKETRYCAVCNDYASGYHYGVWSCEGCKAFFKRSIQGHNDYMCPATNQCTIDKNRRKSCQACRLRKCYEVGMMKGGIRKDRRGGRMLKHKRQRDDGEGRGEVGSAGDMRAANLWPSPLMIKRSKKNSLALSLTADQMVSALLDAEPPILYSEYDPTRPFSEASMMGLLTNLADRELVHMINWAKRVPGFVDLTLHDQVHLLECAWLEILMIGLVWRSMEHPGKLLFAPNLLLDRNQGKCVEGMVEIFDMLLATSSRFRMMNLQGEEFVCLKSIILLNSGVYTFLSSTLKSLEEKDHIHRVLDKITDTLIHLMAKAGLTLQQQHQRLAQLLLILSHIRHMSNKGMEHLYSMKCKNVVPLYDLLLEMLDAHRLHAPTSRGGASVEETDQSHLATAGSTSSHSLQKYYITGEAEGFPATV

creatine kinase activity = details: rat uterus, epiphyseal cartilage, diaphyseal bone, aorta, left ventricle of the heart
[5] = target: presynaptic omega-agatoxin IVA-sensitive (P/Q-type) Ca^2+ channel (Rattus norvegicus, UniProt P54282)
neurogenic inflammation = details: following electrical stimulation of rat trigeminal ganglion
[6] = test system: post-ischemic brain injury; details: focal ischemia in rats
[7] = test system: porcine brain microvascular endothelial cells; details: 50-100 microM
[8] = test system: human umbilical vein endothelial cells (HUVEC)
[9] = test system: extracellular signal-regulated kinase (ERK) 1/2; details: 100 microM
angiogenesis = details: mice
[10] = target: T2, nicotinic ACh receptor channel (Mus musculus, UniProt P02716+P04756+P09690+P20782)
T2 construct: the nicotinic acetylcholine receptor channel in mouse skeletal muscles; host or cells: mouse skeletal muscle

Na^+, K(+)-ATPase = details: compared with other phosphatases examined

T2 sequence (P04756 21-457): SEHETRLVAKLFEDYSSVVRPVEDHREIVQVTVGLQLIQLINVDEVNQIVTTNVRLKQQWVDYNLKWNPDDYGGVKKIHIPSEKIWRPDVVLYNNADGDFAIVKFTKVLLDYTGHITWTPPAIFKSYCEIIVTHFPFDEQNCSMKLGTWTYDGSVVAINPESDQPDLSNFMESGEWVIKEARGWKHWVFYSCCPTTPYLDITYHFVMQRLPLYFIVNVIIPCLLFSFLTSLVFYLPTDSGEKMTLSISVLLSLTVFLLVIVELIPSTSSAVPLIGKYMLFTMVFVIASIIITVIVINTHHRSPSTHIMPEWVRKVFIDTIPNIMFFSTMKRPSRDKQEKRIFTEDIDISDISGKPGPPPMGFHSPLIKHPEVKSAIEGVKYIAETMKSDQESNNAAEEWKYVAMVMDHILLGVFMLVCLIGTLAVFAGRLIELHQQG
T2 sequence (P09690 24-501): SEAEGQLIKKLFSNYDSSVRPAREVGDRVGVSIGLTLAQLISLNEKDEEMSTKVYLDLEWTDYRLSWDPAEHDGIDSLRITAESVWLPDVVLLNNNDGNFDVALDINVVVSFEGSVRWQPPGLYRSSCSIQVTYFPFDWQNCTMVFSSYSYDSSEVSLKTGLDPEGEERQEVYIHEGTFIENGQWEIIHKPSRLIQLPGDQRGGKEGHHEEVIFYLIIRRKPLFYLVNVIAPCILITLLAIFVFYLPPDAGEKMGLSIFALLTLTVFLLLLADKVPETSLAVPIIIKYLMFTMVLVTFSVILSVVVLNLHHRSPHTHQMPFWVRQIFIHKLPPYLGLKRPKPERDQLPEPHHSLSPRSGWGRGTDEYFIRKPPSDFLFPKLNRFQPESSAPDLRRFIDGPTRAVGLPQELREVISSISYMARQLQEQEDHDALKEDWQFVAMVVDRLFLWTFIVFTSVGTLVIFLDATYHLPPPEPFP
T2 sequence (P02716 25-520): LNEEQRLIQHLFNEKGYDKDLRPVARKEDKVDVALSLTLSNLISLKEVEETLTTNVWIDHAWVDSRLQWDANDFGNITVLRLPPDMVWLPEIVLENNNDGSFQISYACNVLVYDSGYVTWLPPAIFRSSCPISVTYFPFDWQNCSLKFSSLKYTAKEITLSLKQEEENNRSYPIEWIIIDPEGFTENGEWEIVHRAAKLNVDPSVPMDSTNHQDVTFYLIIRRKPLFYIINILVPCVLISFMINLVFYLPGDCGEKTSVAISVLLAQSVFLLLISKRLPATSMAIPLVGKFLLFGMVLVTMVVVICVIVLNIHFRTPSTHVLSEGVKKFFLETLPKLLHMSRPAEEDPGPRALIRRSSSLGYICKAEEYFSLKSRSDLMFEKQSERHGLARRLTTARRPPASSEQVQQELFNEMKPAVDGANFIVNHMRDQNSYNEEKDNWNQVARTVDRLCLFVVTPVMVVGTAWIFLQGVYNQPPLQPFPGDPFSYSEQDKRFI
T2 sequence (P20782 21-493): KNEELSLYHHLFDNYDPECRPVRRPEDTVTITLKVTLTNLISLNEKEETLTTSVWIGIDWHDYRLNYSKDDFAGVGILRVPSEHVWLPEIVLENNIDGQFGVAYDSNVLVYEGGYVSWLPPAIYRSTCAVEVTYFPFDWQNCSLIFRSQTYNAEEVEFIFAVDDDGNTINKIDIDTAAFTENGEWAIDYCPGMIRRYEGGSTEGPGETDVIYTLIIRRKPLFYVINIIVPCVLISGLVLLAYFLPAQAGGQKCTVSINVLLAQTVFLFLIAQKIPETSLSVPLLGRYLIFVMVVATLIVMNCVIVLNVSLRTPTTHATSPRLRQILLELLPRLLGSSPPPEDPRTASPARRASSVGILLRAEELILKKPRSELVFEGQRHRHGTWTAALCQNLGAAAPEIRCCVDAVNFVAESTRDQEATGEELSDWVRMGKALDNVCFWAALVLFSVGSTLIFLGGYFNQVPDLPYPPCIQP
Chain of presynaptic omega-agatoxin IVA-sensitive (P/Q-type) Ca^2+ channel (P54282 whole entry): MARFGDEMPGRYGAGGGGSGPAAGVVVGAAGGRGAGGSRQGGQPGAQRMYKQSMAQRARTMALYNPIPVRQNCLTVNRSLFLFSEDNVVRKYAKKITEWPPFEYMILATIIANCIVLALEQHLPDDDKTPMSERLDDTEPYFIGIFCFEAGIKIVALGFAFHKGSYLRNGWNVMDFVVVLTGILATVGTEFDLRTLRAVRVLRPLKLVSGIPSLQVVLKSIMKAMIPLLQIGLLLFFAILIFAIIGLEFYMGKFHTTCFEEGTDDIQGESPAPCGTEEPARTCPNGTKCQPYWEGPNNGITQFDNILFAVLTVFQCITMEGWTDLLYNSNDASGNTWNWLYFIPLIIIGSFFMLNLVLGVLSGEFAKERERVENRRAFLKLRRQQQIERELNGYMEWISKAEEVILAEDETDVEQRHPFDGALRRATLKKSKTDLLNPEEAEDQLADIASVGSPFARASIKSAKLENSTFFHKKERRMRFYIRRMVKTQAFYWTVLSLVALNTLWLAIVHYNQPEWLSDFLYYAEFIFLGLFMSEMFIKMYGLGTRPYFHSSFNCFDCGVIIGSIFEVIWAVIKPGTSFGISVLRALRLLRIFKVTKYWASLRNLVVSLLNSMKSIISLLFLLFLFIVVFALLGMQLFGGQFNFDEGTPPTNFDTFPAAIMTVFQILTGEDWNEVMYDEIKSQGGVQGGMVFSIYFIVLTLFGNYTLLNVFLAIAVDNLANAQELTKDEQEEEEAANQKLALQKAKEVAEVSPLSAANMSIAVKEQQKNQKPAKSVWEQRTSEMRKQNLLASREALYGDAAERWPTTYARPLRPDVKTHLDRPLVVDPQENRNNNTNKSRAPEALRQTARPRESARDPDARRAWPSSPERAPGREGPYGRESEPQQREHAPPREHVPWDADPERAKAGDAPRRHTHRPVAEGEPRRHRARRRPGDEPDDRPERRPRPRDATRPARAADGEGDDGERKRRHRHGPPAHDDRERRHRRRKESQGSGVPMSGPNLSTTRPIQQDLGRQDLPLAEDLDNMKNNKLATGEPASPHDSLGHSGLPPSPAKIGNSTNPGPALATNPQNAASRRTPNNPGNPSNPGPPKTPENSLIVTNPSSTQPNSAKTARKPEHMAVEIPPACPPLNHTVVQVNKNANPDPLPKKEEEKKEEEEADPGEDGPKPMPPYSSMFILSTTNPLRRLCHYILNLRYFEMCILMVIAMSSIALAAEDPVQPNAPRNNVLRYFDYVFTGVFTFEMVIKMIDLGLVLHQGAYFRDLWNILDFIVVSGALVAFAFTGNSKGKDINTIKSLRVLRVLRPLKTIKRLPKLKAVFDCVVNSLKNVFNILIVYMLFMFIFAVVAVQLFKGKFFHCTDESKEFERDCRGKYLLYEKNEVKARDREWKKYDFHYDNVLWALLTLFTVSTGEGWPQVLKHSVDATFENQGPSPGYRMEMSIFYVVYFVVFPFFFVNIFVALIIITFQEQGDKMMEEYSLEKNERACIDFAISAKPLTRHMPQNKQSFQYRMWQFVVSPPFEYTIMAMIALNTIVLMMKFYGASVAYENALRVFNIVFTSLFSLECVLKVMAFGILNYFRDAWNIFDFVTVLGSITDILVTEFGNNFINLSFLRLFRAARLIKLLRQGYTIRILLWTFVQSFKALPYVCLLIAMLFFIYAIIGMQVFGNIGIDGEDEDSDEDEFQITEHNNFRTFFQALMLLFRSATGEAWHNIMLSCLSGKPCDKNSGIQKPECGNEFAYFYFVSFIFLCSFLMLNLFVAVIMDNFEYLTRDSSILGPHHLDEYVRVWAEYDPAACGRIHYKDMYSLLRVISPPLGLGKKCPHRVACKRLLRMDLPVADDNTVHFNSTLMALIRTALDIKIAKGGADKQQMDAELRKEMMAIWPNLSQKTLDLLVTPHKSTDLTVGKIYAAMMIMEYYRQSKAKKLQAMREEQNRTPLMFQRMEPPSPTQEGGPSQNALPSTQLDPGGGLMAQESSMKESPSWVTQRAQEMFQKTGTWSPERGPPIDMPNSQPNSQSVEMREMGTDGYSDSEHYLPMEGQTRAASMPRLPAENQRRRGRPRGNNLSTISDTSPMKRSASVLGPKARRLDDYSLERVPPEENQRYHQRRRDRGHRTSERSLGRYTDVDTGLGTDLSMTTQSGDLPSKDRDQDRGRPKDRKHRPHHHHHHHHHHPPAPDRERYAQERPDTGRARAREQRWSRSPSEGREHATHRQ

Q: Which LD50 [1] does the source give for `C[C@@H]1CC[C@H]2[C@@H](C)C(=O)O[C@@H]3O[C@@]4(C)CC[C@@H]1[C@]32OO4` [Artemisinin] here?
A: 4228 mg/kg

Q: Which estrogenic activity (estrogenic activity) does the source give for `CC1(C)[C@H]2C(=COc3cc(O)ccc32)[C@@H]2C(=O)C[C@]3(O)C[C@H]1[C@H]2[C@H]3O` [Deoxymiroestrol] here?
A: highest estrogenic activity among the known phytoestrogens

Q: With `CC1(C)[C@H]2C(=COc3cc(O)ccc32)[C@]2(O)C(=O)C[C@]3(O)C[C@H]1[C@H]2[C@H]3O` [Miroestrol] as the compound, how does the estrogenic activity (estrogenic activity) read?
A: highest estrogenic activity among the known phytoestrogens

Q: Which toxicity in monkeys [2] does the source give for `CO[C@H]1O[C@@H]2O[C@@]3(C)CC[C@H]4[C@H](C)CC[C@@H]([C@H]1C)[C@@]24OO3` [artemether] here?
A: no toxicity

Q: Which “pigmentation induced by UVB radiation” value ([3]; 0.5% solution, topical, backs of brownish guinea pigs) does the source give for `CC1(C)C=Cc2c(ccc3c2OC[C@@H](c2ccc(O)cc2O)C3)O1` [glabridin, Glabridin] here?
A: significantly reduced pigmentation

Q: What about the “inflammation induced by UVB irradiation” value ([3]; 0.5% solution, topical, guinea pig skin) of the same compound?
A: decreased the inflammation

Q: What about the DOPA-positive melanocytes ([3]; treated skin, epidermal histology) of the same compound?
A: reduced in number

Q: What about the “superoxide (active oxygen) formation” value [4] of the same compound?
A: inhibited superoxide (active oxygen) formation

Q: And the cyclooxygenase activity (cyclooxygenase)?
A: inhibited the cyclooxygenase activity

Q: What about the “binding to estrogen receptor” value (human estrogen receptor) of the same compound?
A: binding to the human estrogen receptor

Q: And the creatine kinase activity (creatine kinase activity)?
A: stimulating creatine kinase activity

Q: And the “effect on growth of breast tumor cells, low concentrations” value (breast tumor cells; 10 nM-10 μM, estrogen receptor-dependent)?
A: growth-promoting effect

Q: What about the “effect on growth of breast tumor cells, high concentrations” value (breast tumor cells; >15 μM, estrogen receptor-independent) of the same compound?
A: antiproliferative activity

Q: For `CC1=CCC[C@]2(C)CC[C@@H](C(C)(C)O)C[C@@H]12` [α-eudesmol], which “inhibition of P/Q-type Ca2+ channel” value [5] is on record?
A: potently inhibits

Q: And the “inhibition of neurogenic inflammation” value (neurogenic inflammation)?
A: potently inhibits

Q: And the post-ischemic brain injury [6]?
A: attenuates post-ischemic brain injury

Q: For `C=C1CCC[C@]2(C)CC[C@@H](C(C)(C)O)C[C@@H]12` [β-eudesmol], which neurite extension (PC-12 cells; 100 and 150 μM) is on record?
A: significantly induced neurite extension

Q: And the “[3H]thymidine incorporation” value (PC-12 cells; at the highest concentration (150 μM))?
A: suppression of [^3H]thymidine incorporation

Q: And the “proliferation of porcine brain microvascular endothelial cells” value [7]?
A: inhibited

Q: And the “HUVEC migration stimulated by bFGF” value [8]?
A: inhibited the HUVEC migration

Q: And the “tube formation by HUVEC in Matrigel” value [8]?
A: inhibited

Q: And the “proliferation of HUVEC” value ([8]; 50-100 microM)?
A: inhibited

Q: And the “phosphorylation of ERK 1/2 induced by bFGF or vascular endothelial growth factor” value [9]?
A: blocked the phosphorylation

Q: And the “angiogenesis in adjuvant-induced granuloma” value (angiogenesis)?
A: significantly inhibited angiogenesis

Q: And the “angiogenesis in subcutaneously implanted Matrigel plugs” value (angiogenesis)?
A: significantly inhibited angiogenesis

Q: And the “desensitization of the nicotinic ACh receptor” value [10]?
A: accelerated the desensitization

Q: And the “nicotinic ACh receptor channel block” value ([10]; mouse skeletal muscles)?
A: blocked the nicotinic ACh receptor channel in both the open and closed conformations

Q: And the “inhibition of Na+,K+-ATPase activity” value (Na^+, K(+)-ATPase)?
A: most strongly among the various kinds of phosphatases examined
